Earlier results, collected in patent publication US12083109B2, “Neurokinin antagonists and uses thereof” (California Institute of Technology, priority 2017, dated 2024).
Like-named read-outs stand apart in the source and are kept apart here.

Target: T1, NK3R (Homo sapiens, UniProt P29371)
T1 construct: host or cells: human trial subjects
T1 sequence (P29371 1-465): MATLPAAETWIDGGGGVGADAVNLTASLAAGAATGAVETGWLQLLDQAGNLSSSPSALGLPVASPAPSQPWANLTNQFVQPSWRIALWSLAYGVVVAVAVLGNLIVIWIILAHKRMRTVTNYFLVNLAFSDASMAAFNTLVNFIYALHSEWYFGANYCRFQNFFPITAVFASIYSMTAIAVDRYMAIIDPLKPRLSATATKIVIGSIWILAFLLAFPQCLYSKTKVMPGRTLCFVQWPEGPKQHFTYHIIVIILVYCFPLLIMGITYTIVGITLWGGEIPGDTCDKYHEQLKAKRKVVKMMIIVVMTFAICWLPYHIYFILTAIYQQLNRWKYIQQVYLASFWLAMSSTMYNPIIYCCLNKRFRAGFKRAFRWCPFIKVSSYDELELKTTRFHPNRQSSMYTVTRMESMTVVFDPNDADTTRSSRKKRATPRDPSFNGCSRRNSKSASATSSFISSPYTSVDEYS
Conditions: cited from earlier work; for safety and tolerability in clinical trials: human, Phase I

CCC(NC(=O)c1c(O)c(-c2ccccc2)nc2ccccc12)c1ccccc1 (stereo not drawn) [Talnetant, 3-hydroxy-2-phenyl-N-(1-phenylpropyl)quinoline-4-carboxamide]
efficacy in schizophrenia and major depressive disorder (human trials, Phase II/III): lack of efficacy
safety and tolerability in clinical trials: exhibited safety
safety and tolerability in clinical trials (listed as talnetant): safe and well-tolerated
